Like-named read-outs stand apart in the source and are kept apart here.
Tested on: Peripheral blood mononuclear cells (PBMC)
Test: Cytokine Induction in Human Cells (in vitro human blood cell system, IFN and TNF secreted into culture media)
Type: cell-based
Design: key to Lowest Effective Concentration (μM) Tumor Necrosis Factor / Lowest Effective Concentration (μM) Interferon: *: no induction was seen at any of the tested concentrations
Conditions: 18 to 24 hours, tested 30-0.014 μM
Excerpt: An in vitro human blood cell system is used to assess cytokine induction. Activity is based on the measurement of interferon and tumor necrosis factor (α) (IFN and TNF, respectively) secreted into culture media as described by Testerman et. al. In “Cytokine Induction by the Immunomodulators Imiquimod and S-27609”, Journal of Leukocyte Biology, 58, 365-372 (September, 1995).
Whole blood from healthy human donors is collected by venipuncture into EDTA vacutainer tubes. Peripheral blood mononuclear cells (PBMC) are separated from whole blood by density gradient centrifugation using Histopaque®-1077. Blood is diluted 1:1 with Dulbecco's Phosphate Buffered Saline (DPBS) or Hank's Balanced Salts Solution (HBSS). The PBMC layer is collected and washed twice with DPBS or HBSS and resuspended at 4×10^6 cells/mL in RPMI complete. The PBMC suspension is added to 48 well flat bottom sterile tissue culture plates (Costar, Cambridge, Mass. or Becton Dickinson Labware, Lincoln Park, N.J.) containing an equal volume of RPMI complete media containing test compound.
The compounds are solubilized in dimethyl sulfoxide (DMSO). The DMSO concentration should not exceed a final concentration of 1% for addition to the culture wells. The compounds are generally tested at concentrations ranging from 30-0.014 μM.
The solution of test compound is added at 60 μM to the first well containing RPMI complete and serial 3 fold dilutions are made in the wells. The PBMC suspension is then added to the wells in an equal volume, bringing the test compound concentrations to the desired range (30-0.014 μM). The final concentration of PBMC suspension is 2×10^6 cells/mL. The plates are covered with sterile plastic lids, mixed gently and then incubated for 18 to 24 hours at 37° C. in a 5% carbon dioxide atmosphere.
Following incubation the plates are centrifuged for 10 minutes at 1000 rpm (˜200×g) at 4° C. The cell-free culture supernatant is removed with a sterile polypropylene pipet and transferred to sterile polypropylene tubes. Samples are maintained at −30 to −70° C. until analysis. The samples are analyzed for interferon (α) by ELISA and for tumor necrosis factor (α) by ELISA or IGEN Assay.
Interferon (α) concentration is determined by ELISA using a Human Multi-Species kit from PBL Biomedical Laboratories, New Brunswick, N.J. Results are expressed in pg/mL.
Tumor necrosis factor (α) (TNF) concentration is determined using ELISA kits available from Biosource International, Camarillo, Calif. Alternately, the TNF concentration can be determined by Origen® M-Series Immunoassay and read on an IGEN M-8 analyzer from IGEN International, Gaithersburg, Md. The immunoassay uses a human TNF capture and detection antibody pair from Biosource International, Camarillo, Calif. Results are expressed in pg/mL.
The table below lists the lowest concentration found to induce interferon and the lowest concentration found to induce tumor necrosis factor for each compound.

[1] = lowest concentration found to induce interferon (α), ELISA, read-out: Lowest Effective Concentration (μM) Interferon
[2] = lowest concentration found to induce tumor necrosis factor (α), ELISA or IGEN assay
[3] = Homo sapiens, PBMC, lowest concentration found to induce interferon (α), ELISA, read-out: Lowest Effective Concentration (μM) Interferon
[4] = lowest concentration found to induce interferon (α), ELISA
[5] = Homo sapiens, PBMC, lowest concentration found to induce tumor necrosis factor (α), ELISA or IGEN assay, read-out: Lowest Effective Concentration (μM) Tumor Necrosis Factor

Row | Compound | Lowest Effective Concentration (μM) Tumor Necrosis Factor [2] | minimal effective concentration [3] | also measured
1 | CCC(COCc1ccc(C#N)cc1)n1cnc2c(N)nc3ccccc3c21 (centres unmarked) [Example 46] | – | – | minimal effective concentration [1]: 0.01 µM; minimal effective concentration (lowest concentration found to induce tumor necrosis factor (α), ELISA or IGEN assay, read-out: Lowest Effective Concentration (μM) Tumor Necrosis Factor): 3.33 µM
2 | CCC(COCc1cccc(Cl)c1)n1cnc2c(N)nc3ccccc3c21 (centres unmarked) [Example 47] | * | – | minimal effective concentration [1]: 0.12 µM
3 | CCC(COCc1ccc(OC(F)(F)F)cc1)n1cnc2c(N)nc3ccccc3c21 (centres unmarked) [Example 48] | * | 0.12 µM | –
4 | CCC(COCc1ccc(C)cc1)n1cnc2c(N)nc3ccccc3c21 (centres unmarked) [Example 49] | * | 0.04 µM | –
5 | Cc1ccc(COC(C)Cn2cnc3c(N)nc4ccccc4c32)cc1 (centres unmarked) [Example 50] | * | 3.33 µM | –
6 | CC(Cn1cnc2c(N)nc3ccccc3c21)Oc1ccccc1[N+](=O)[O-] (centres unmarked) [Example 51] | * | 0.37 µM | –
7 | CC(Cn1cnc2c(N)nc3ccccc3c21)OCc1ccc(Cl)cc1 (centres unmarked) [Example 52] | * | 1.11 µM | –
8 | CC(Cn1cnc2c(N)nc3ccccc3c21)OCc1ccc(Cl)c(Cl)c1 (centres unmarked) [Example 53] | * | 1.11 µM | –
9 | CC(Cn1cnc2c(N)nc3ccccc3c21)Oc1ccc([N+](=O)[O-])cc1 (centres unmarked) [Example 54] | * | 0.12 µM | –
10 | Cc1ccc([N+](=O)[O-])c(OCC(C(C)C)n2cnc3c(N)nc4ccccc4c32)c1 (centres unmarked) [Example 55] | * | – | Lowest Effective Concentration (μM) Interferon [4]: *
11 | Cc1ccc([N+](=O)[O-])c(OC(C)Cn2cnc3c(N)nc4ccccc4c32)c1 (centres unmarked) [Example 56] | – | 1.11 µM | minimal effective concentration [5]: 10 µM
12 | CC(C)C(COc1ccccc1[N+](=O)[O-])n1cnc2c(N)nc3ccccc3c21 (centres unmarked) [Example 57] | – | – | minimal effective concentration [5]: 30 µM; Lowest Effective Concentration (μM) Interferon [4]: *
13 | CC(C)C(COc1ccc([N+](=O)[O-])cc1)n1cnc2c(N)nc3ccccc3c21 (centres unmarked) [Example 58] | * | 3.33 µM | –
14 | CC(C)C(COCc1ccccc1)n1cnc2c(N)nc3ccccc3c21 (centres unmarked) [Example 59] | * | 1.11 µM | –
15 | CC(C)C(COCc1ccc(Cl)cc1)n1cnc2c(N)nc3ccccc3c21 (centres unmarked) [Example 60] | * | 1.11 µM | –
16 | CC(C)C(COCc1cccc(Cl)c1)n1cnc2c(N)nc3ccccc3c21 (centres unmarked) [Example 61] | * | 3.33 µM | –
17 | CC(C)C(COCc1ccc(Cl)c(Cl)c1)n1cnc2c(N)nc3ccccc3c21 (centres unmarked) [Example 62] | – | – | minimal effective concentration [5]: 3.33 µM; Lowest Effective Concentration (μM) Interferon [4]: *
18 | CC(C)C(COCc1cccc(C(F)(F)F)c1)n1cnc2c(N)nc3ccccc3c21 (centres unmarked) [Example 63] | * | – | Lowest Effective Concentration (μM) Interferon [4]: *
19 | CC(C)C(COCc1ccc(C#N)cc1)n1cnc2c(N)nc3ccccc3c21 (centres unmarked) [Example 64] | * | 3.33 µM | –

Row | Compound | Lowest Effective Concentration (μM) Tumor Necrosis Factor [2] | minimal effective concentration [3] | also measured
20 | CC(C)C(COCc1cccc(C#N)c1)n1cnc2c(N)nc3ccccc3c21 (centres unmarked) [Example 65] | * | 1.11 µM | –
21 | COC(=O)c1ccc(COCC(C(C)C)n2cnc3c(N)nc4ccccc4c32)cc1 (centres unmarked) [Example 66] | * | – | Lowest Effective Concentration (μM) Interferon [4]: *
22 | CC(Cn1cnc2c(N)nc3ccccc3c21)OCc1ccc(C(C)(C)C)cc1 (centres unmarked) [Example 67] | – | – | minimal effective concentration [5]: 30 µM; Lowest Effective Concentration (μM) Interferon [4]: *
23 | CC(Cn1cnc2c(N)nc3ccccc3c21)OCc1ccc(C(F)(F)F)cc1 (centres unmarked) [Example 68] | * | 3.33 µM | –
24 | CC(Cn1cnc2c(N)nc3ccccc3c21)OCc1cccc2ccccc12 (centres unmarked) [Example 69] | * | 1.11 µM | –
25 | CC(COCc1ccccc1)n1cnc2c(N)nc3ccccc3c21 (centres unmarked) [Example 70] | * | 0.37 µM | –
26 | COC(=O)c1ccc(COCC(C)n2cnc3c(N)nc4ccccc4c32)cc1 (centres unmarked) [Example 71] | * | 3.33 µM | –
27 | Cc1ccc(COCC(C)n2cnc3c(N)nc4ccccc4c32)cc1 (centres unmarked) [Example 72] | * | 1.11 µM | –
28 | CC(COCc1ccc(Cl)cc1)n1cnc2c(N)nc3ccccc3c21 (centres unmarked) [Example 73] | * | 1.11 µM | –
29 | CC(COCc1ccc(C(F)(F)F)cc1)n1cnc2c(N)nc3ccccc3c21 (centres unmarked) [Example 74] | * | 0.37 µM | –
30 | Nc1nc2ccccc2c2c1ncn2CCCCOCc1ccccc1 [Example 75] | * | – | Lowest Effective Concentration (μM) Interferon [4]: *
31 | Cc1cccc(COCCCCn2cnc3c(N)nc4ccccc4c32)c1 [Example 76] | * | 1.11 µM | –
32 | Cc1ccc(COCCCCn2cnc3c(N)nc4ccccc4c32)cc1 [Example 77] | * | 0.12 µM | –
33 | Nc1nc2ccccc2c2c1ncn2CCCCOCc1ccc(C(F)(F)F)cc1 [Example 78] | * | – | Lowest Effective Concentration (μM) Interferon [4]: *
34 | Nc1nc2ccccc2c2c1ncn2CC(OCCCCOc1ccccc1)c1ccccc1 (centres unmarked) [Example 79] | * | – | Lowest Effective Concentration (μM) Interferon [4]: *
35 | CC(n1cnc2c(N)nc3ccccc3c21)C(C)(C)OCc1ccccc1 (centres unmarked) [Example 80] | * | – | Lowest Effective Concentration (μM) Interferon [4]: *
36 | CCC(COCc1ccccc1)n1c(C)nc2c(N)nc3ccccc3c21 (centres unmarked) [Example 81] | * | 1.11 µM | –
37 | CCc1nc2c(N)nc3ccccc3c2n1C(CC)COCc1ccccc1 (centres unmarked) [Example 82] | * | – | Lowest Effective Concentration (μM) Interferon [4]: *
